System: recombinant human HDACs
Assay: HDAC enzymatic assay (LabChip capillary electrophoresis)
Type: biochemical
Conditions: 5 nM HDAC enzyme, 1 uM substrate, 5 hours pre-incubation, 17 hours reaction at 25°C; isoform not given
Experimental: All recombinant human HDACs were purchased from BPS Bioscience. The substrate, FAM-TSRHK(AC)KL-CONH, was synthesized at NanoSyn. Final assay reactions contained 100 mM HEPES (pH 7.5), 50 mM KCl, 0.1% BSA, 0.01% Triton X-100, 1% DMSO, 1 uM substrate and 5 nM HDAC enzyme. Enzyme and compounds were pre-incubated at 25°C for 5 hours and reactions were initiated by addition of substrate. 10 uL reactions were incubated for 17 hours at 25°C and terminated by the addition of 40 uL of buffer containing 100 mM HEPES (pH 7.5), 0.1% BSA, 0.01% Triton X-100 and 0.05% SDS. Substrate and product peptides present in each sample were separated electrophoretically using the LabChip 3000 capillary electrophoresis instrument. Change in the relative fluorescence intensity of the substrate and product peaks reflects enzyme activity. Reaction progress was determined as the product to sum ratio (PSR): P/(S+P), where P is the peak height of the product peptide and S is the peak height of the substrate peptide. Reactions were performed in duplicate at 12 concentrations, (3X serial dilutions starting at 30 uM). IC50 values were calculated using a 4 Parameter Logistic Model.

| Compound | IC50 |
| --- | --- |
| Nc1ccc(-c2cccnc2)nc1NC(=O)N1Cc2nccnc2C1 [Compound 214] | 0.5 to 5 µM |
| Cn1cc(CN2CCC3(CC2)CCN(C(=O)Nc2nc(-c4cccnc4)ccc2N)C3)cn1 [Compound 215] | > 5 µM |
| Nc1ccc(-c2cccnc2)nc1NC(=O)N1Cc2cc(F)cnc2C1 [Compound 218] | > 5 µM |
| Nc1ccc(-c2cccnc2)nc1NC(=O)c1cn2c(n1)CNCC2 [Compound 219] | > 5 µM |
| Nc1ccc(-c2cccnc2)nc1NC(=O)N1CC2(CCNCC2)C1 [Compound 220] | > 5 µM |
| Nc1ccc(-c2cccnc2)nc1NC(=O)N1CCCC1 [Compound 221] | > 5 µM |
| COc1cccc(CN2CCCC3(CCN(C(=O)Nc4nc(-c5ccc(F)cc5)ccc4N)C3)C2)c1 (centres unmarked) [Compound 222] | > 5 µM |
| Cn1cc(CN2CCCC3(CCN(C(=O)Nc4nc(-c5ccc(F)cc5)ccc4N)C3)C2)cn1 (centres unmarked) [Compound 223] | > 5 µM |
| Nc1ccc(-c2ccc(F)cc2)nc1NC(=O)N1CCN2CCCC2C1 (centres unmarked) [Compound 224] | > 5 µM |
| Cc1cnc(C(=O)Nc2nc(-c3ccc(F)cc3)ccc2N)s1 [Compound 226] | 0.1 to 0.5 µM |
| Nc1ccc(-c2ccc(OC(F)F)cc2)nc1NC(=O)N1Cc2nccnc2C1 [Compound 228] | 0.5 to 5 µM |
| Nc1ccc(-c2ccc(OC(F)F)cc2)nc1NC(=O)N1CCCC1 [Compound 232] | 0.5 to 5 µM |
| Nc1ccc(-c2ccc(F)cc2)nc1NC(=O)N1CC2CN(CC3CCOCC3)CC2C1 (centres unmarked) [Compound 235] | > 5 µM |
| Nc1ccc(-c2ccc(F)cc2)nc1NC(=O)N1CC2CN(C3CCOCC3)CC2C1 (centres unmarked) [Compound 236] | > 5 µM |
| CN(C1CCOC1)C1CC2CN(C(=O)Nc3nc(-c4ccc(F)cc4)ccc3N)CC2C1 (centres unmarked) [Compound 237] | > 5 µM |
| Nc1ccc(-c2ccc(F)cc2)nc1NC(=O)N1C[C@@H]2[C@@H](CO)[C@@H]2C1 [Compound 238] | 0.5 to 5 µM |
| Nc1ccc(-c2ccc(F)cc2)nc1NC(=O)N1Cc2cnc(C3CCOCC3)cc2C1 [Compound 240] | 0.1 to 0.5 µM |
| CN(C)[C@H]1[C@@H]2CN(C(=O)Nc3nc(-c4ccc(F)cc4)ccc3N)C[C@@H]21 [Compound 242] | > 5 µM |
| CN1CC(Cn2ncc3c2CN(C(=O)Nc2nc(-c4ccc(F)cc4)ccc2N)C3)C1 [Compound 244] | 0.5 to 5 µM |
| CN1CC(Cn2cc3c(n2)CN(C(=O)Nc2nc(-c4ccc(F)cc4)ccc2N)C3)C1 [Compound 245] | 0.1 to 0.5 µM |
| CN1CC(n2ncc3c2CN(C(=O)Nc2nc(-c4ccc(F)cc4)ccc2N)C3)C1 [Compound 246] | > 5 µM |
| CN1CC(n2cc3c(n2)CN(C(=O)Nc2nc(-c4ccc(F)cc4)ccc2N)C3)C1 [Compound 247] | 0.1 to 0.5 µM |
| Nc1cnc(-c2ccc(F)cc2)cc1NC(=O)N1Cc2cnc(N3CCC3)cc2C1 [Compound 254] | 0.5 to 5 µM |
| Nc1ccc(-c2ccc(F)cc2)nc1NC(=O)N1Cc2cnc(C3CC3)cc2C1 [Compound 255] | 0.1 to 0.5 µM |
| CN1CC(CN2CC3CN(C(=O)Nc4nc(-c5ccc(F)cc5)ccc4N)CC3C2)C1 (centres unmarked) [Compound 256] | 0.5 to 5 µM |
| Nc1cn(-c2ccccc2)nc1NC(=O)C1CCNCC1 [Compound 357] | > 5 µM |
| CN1CC=C(c2ccc3c(c2)CN(C(=O)Nc2nc(-c4ccc(F)cc4)ccc2N)C3)CC1 [Compound 362] | 0.1 to 0.5 µM |

Further lines, results first:

| IC50 | Compound |
| --- | --- |
| 0.5 to 5 µM | CN(C1COC1)C1CC2CN(C(=O)Nc3nc(-c4ccc(F)cc4)ccc3N)CC2C1 (centres unmarked) [Compound 248] |
| > 5 µM | Nc1ccc(-c2ccc(F)cc2)nc1NC(=O)N1Cc2cccc(N3CCCC3)c2C1 [Compound 249] |
| 0.1 to 0.5 µM | Nc1ccc(-c2ccc(F)cc2)nc1NC(=O)N1Cc2cccc(F)c2C1 [Compound 259] |
| 0.1 to 0.5 µM | COc1cc2c(cn1)CN(C(=O)Nc1nc(-c3ccc(F)cc3)ccc1N)C2 [Compound 260] |
| > 5 µM | Cc1cc(F)ccc1-c1ccc(N)c(NC(=O)N2Cc3cnc(CN(C)C)cc3C2)n1 [Compound 261] |
| > 5 µM | CN(C1COC1)[C@H]1[C@@H]2CN(C(=O)Nc3nc(-c4ccc(F)cc4)ccc3N)C[C@@H]21 [Compound 262] |
| 0.5 to 5 µM | Nc1cn(-c2ccccc2)nc1NC(=O)N1Cc2ccc(CO)cc2C1 [Compound 350] |
| 0.1 to 0.5 µM | CN(C)Cc1ccc2c(c1)CN(C(=O)Nc1nn(-c3ccccc3)cc1N)C2 [Compound 351] |
| 0.5 to 5 µM | CN1CCN(c2ccc3c(c2)CN(C(=O)Nc2nn(-c4ccccc4)cc2N)C3)CC1 [Compound 352] |
| 0.5 to 5 µM | CN1CCN(Cc2ccc3c(c2)CN(C(=O)Nc2nn(-c4ccccc4)cc2N)C3)CC1 [Compound 353] |
| > 5 µM | CN1CCC(C(=O)Nc2nn(-c3ccccc3)cc2N)CC1 [Compound 354] |
| > 5 µM | Nc1cn(-c2ccccc2)nc1NC(=O)N1CCN(C2COC2)CC1 [Compound 356] |
| > 5 µM | CC(=O)N1CCC(C(=O)Nc2nn(-c3ccccc3)cc2N)CC1 [Compound 358] |
| > 5 µM | Nc1cn(-c2ccccc2)nc1NC(=O)C1CCN(C2COC2)CC1 [Compound 359] |
| > 5 µM | CC(=O)N1CCN(C(=O)Nc2nn(-c3ccccc3)cc2N)CC1 [Compound 360] |
| > 5 µM | CN1CCN(C(=O)Nc2nn(-c3ccccc3)cc2N)CC1 [Compound 361] |
| 0.1 to 0.5 µM | COC1CCN(Cc2ccc3c(c2)CN(C(=O)Nc2nc(-c4ccc(F)cc4)ccc2N)C3)C1 (centres unmarked) [Compound 363] |
| 0.5 to 5 µM | Nc1ccc(-c2ccc(F)cc2)nc1NC(=O)N1CCC(F)(F)C1 [Compound 364] |

| IC50 | Compound |
| --- | --- |
| 0.1 to 0.5 µM | CN(C)Cc1ccc2c(c1)CN(C(=O)Nc1nc(-c3ccco3)ccc1N)C2 [Compound 365] |
| 0.5 to 5 µM | CN1CCC(N2CCC(C(=O)Nc3nc(-c4ccc(F)cc4)ccc3N)CC2)CC1 [Compound 368] |
| 0.5 to 5 µM | Nc1ccc(-n2cccn2)nc1NC(=O)N1Cc2ccncc2C1 [Compound 369] |
| > 5 µM | Nc1ccc(-n2cccn2)nc1NC(=O)C1CCN(Cc2ccccc2F)CC1 [Compound 370] |
| 0.5 to 5 µM | Nc1ccc(-c2ccco2)nc1NC(=O)N1Cc2ccncc2C1 [Compound 372] |
| 0.1 to 0.5 µM | CN1CCN(c2ccc3c(c2)CN(C(=O)Nc2nc(-c4ccc(F)cc4)ccc2N)C3)CC1 [Compound 374] |
| > 5 µM | CN1CCC(COC(=O)Nc2nc(-c3cccnc3)ccc2N)CC1 [Compound 375] |
| > 5 µM | CN1CC(CC(=O)Nc2nc(-c3ccc(F)cc3)ccc2N)C1 [Compound 376] |
| > 5 µM | Nc1ccc(-c2ccccc2)nc1NC(=O)C1CCN(Cc2cccnc2)CC1 [Compound 377] |
| > 5 µM | Nc1ccc(-c2cccnc2)nc1NC(=O)C1CCN(Cc2ccccc2F)CC1 [Compound 378] |
| > 5 µM | Nc1ccc(-c2ccccc2)nc1NC(=O)C1CCN(Cc2ccccc2F)CC1 [Compound 379] |
| > 5 µM | CC(=O)N1CCC(C(=O)Nc2nc(-c3ccccc3)ccc2N)CC1 [Compound 380] |
| > 5 µM | Nc1ccc(-c2ccccc2)nc1NC(=O)C1CCN(C2COC2)CC1 [Compound 381] |
| > 5 µM | Nc1cn(-c2ccccc2)nc1NC(=O)N1CC2COCC2C1 (centres unmarked) [Compound 382] |
| 0.1 to 0.5 µM | CN1CCC(c2ccc3c(c2)CN(C(=O)Nc2nn(-c4ccccc4)cc2N)C3)CC1 [Compound 383] |
| > 5 µM | Nc1cn(-c2ccccc2)nc1NC(=O)N1CC2CCCC2C1 (centres unmarked) [Compound 384] |
| 0.5 to 5 µM | Nc1ccc(-c2ccc(F)cc2)nc1NC(=O)N1CC2CCCC2C1 (centres unmarked) [Compound 385] |

Source: patent publication EP3319959B1, “HETERO-HALO INHIBITORS OF HISTONE DEACETYLASE” (Alkermes, Inc., priority 2015, dated 2017)
